In US10676431B2, “Phenylpyrrolidinone formyl peptide 2 receptor agonists” (BRISTOL-MYERS SQUIBB COMPANY, priority 2018, dated 2020):

Key:
human FPR2 = human FPR2 (Homo sapiens (Human), UniProt P25090); assay: FPR2 cyclic adenosine monophosphate (cAMP) assay; format: cell-based; conditions: CHO cells overexpressing human FPR2; forskolin 5 μM, IBMX 200 μM; inhibition of cAMP production, HTRF; read-out: hFPR2 cAMP2 EC50
Experimental: (§1) FPR2 and FPR1 Cyclic Adenosine Monophosphate (cAMP) Assays. A mixture of forskolin (5 μM final for FPR2 or 10 μM final for FPR1) and IBMX (200 μM final) were added to 384-well Proxiplates (Perkin-Elmer) pre-dotted with test compounds in DMSO (1% final) at final concentrations in the range of 0.020 nM to 100 μM. Chinese Hamster Ovary cells (CHO) overexpressing human FPR1 or human FPR2 receptors were cultured in F-12 (Ham's) medium supplemented with 10% qualified FBS, 250 μg/ml zeocin and 300 μg/ml hygromycin (Life Technologies). Reactions were initiated by adding 2,000 human FPR2 cells per well or 4,000 human FPR1 cells per well in Dulbecco's PBS (with calcium and magnesium) (Life Technologies) supplemented with 0.1% BSA (Perkin-Elmer). The reaction mixtures were incubated for 30 min at room temperature. The level of intracellular cAMP was determined using the HTRF HiRange cAMP assay reagent kit (Cisbio) according to manufacturer's instruction. Solutions of cryptate conjugated anti-cAMP and d2 fluorophore-labelled cAMP were made in a supplied lysis buffer separately. Upon completion of the reaction, the cells were lysed with equal volume of the d2-cAMP solution and anti-cAMP solution. After a 1-h room temperature incubation, time-resolved fluorescence intensity was measured using the Envision (Perkin-Elmer) at 400 nm excitation and dual emission at 590 nm and 665 nm. A calibration curve was constructed with an external cAMP standard at concentrations ranging from 1 μM to 0.1 pM by plotting the fluorescent intensity ratio from 665 nm emission to the intensity from the 590 nm emission against cAMP concentrations. The potency and activity of a compound to inhibit cAMP production was then determined by fitting to a 4-parametric logistic equation from a plot of cAMP level versus compound concentrations.

human FPR1 = human FPR1 (Homo sapiens (Human), UniProt P21462); assay: FPR1 cyclic adenosine monophosphate (cAMP) assay; format: cell-based; conditions: CHO cells overexpressing human FPR1; forskolin 10 μM, IBMX 200 μM; inhibition of cAMP production, HTRF; read-out: hFPR1 cAMP EC50
Sequence of human FPR1 (P21462 whole entry): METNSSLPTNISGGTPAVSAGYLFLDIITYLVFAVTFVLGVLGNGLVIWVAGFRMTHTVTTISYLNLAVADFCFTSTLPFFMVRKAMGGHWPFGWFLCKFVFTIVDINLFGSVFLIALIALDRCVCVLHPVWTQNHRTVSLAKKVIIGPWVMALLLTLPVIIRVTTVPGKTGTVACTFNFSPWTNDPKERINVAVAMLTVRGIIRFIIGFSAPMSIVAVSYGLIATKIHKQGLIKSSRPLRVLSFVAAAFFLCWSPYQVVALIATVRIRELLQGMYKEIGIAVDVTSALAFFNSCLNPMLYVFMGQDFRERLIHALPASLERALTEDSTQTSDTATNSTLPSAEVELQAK
Experimental: as §1, with “After a 1-h room temperature incubation, time-resolved fluorescence intensity was measured using the Envision (Perkin-Elmer) at 400 nm excitation and dual emission at 590 nm and 665 nm. A calibration curve was constructed with an external cAMP standard at concentrations ranging from 1 μM to 0.1 pM by plotting the fluorescent intensity ratio from 665 nm emission to the intensity from the 590 nm emission against cAMP concentrations.” left out

Sequence of human FPR2 (P25090 whole entry): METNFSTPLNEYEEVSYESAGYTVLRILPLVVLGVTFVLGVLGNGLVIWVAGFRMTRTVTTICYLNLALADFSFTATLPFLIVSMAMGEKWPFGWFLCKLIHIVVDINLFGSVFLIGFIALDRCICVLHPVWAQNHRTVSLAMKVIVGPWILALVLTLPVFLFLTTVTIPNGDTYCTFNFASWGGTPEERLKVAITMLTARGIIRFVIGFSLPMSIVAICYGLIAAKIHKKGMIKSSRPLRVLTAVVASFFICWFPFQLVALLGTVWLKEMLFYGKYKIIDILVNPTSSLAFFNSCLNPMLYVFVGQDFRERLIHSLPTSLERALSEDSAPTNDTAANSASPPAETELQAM

Structure (SMILES) | EC50 (human FPR2) | EC50 (human FPR1)
O=C(Nc1ccc(C(F)(F)F)cc1F)N[C@@H]1CCN(c2ccc(-c3ccccc3CO)c(F)c2F)C1=O [Example 31] | 4 nM | 430 nM
CP(C)(=O)c1ccccc1-c1ccc(N2CC[C@@H](NC(=O)Nc3ccc(C(F)(F)F)cc3F)C2=O)c(F)c1Cl [Example 77] | 1.2 nM | 79 nM
CP(C)(=O)c1ncccc1-c1ccc(N2CC[C@@H](NC(=O)Nc3ccc(C(F)(F)F)cc3F)C2=O)c(F)c1F [Example 73, (R)-1-(1-(4-(2-(dimethylphosphoryl)pyridin-3-yl)-2,3-difluorophenyl)-2-oxopyrrolidin-3-yl)-3-(2-fluoro-4-(trifluoromethyl)phenyl)urea] | 0.89 nM | 170 nM
CCP(=O)(CC)c1ccccc1-c1ccc(N2CC[C@@H](NC(=O)Nc3ccc(C(F)(F)F)cc3F)C2=O)c(F)c1F [Example 68] | 0.53 nM | 150 nM
CS(=O)(=O)c1ccccc1-c1ccc(N2CC[C@@H](NC(=O)Nc3ccc(Cl)cc3F)C2=O)c(F)c1F [Example 7] | 2.1 nM | 140 nM
N#Cc1ccccc1-c1ccc(N2CC[C@@H](NC(=O)Nc3ccc(Cl)cc3)C2=O)c(F)c1F [Example 8] | 2 nM | 61 nM
COc1ccc(NC(=O)N[C@@H]2CCN(c3ccc(-c4ccccc4P(C)(C)=O)c(F)c3F)C2=O)c(F)c1 [Example 71] | 2.1 nM | 1280 nM
CC(C)c1cc(-c2ccccc2P(C)(C)=O)ccc1N1CC[C@@H](NC(=O)Nc2ccc(C(F)(F)F)cc2F)C1=O [Example 60] | 3.7 nM | 120 nM
CP(C)(=O)c1ccccc1-c1ccc(N2CC[C@@H](NC(=O)Nc3ccc(Cl)cn3)C2=O)c(F)c1F [Example 49] | 5.6 nM | 3400 nM
COP(=O)(OC)c1ccccc1-c1ccc(N2CC[C@@H](NC(=O)Nc3ccc(C(F)(F)F)cc3F)C2=O)c(F)c1F [Example 108] | 1.4 nM | 
CCOP(C)(=O)c1ccccc1-c1ccc(N2CC[C@@H](NC(=O)Nc3ccc(C(F)(F)F)cc3F)C2=O)c(F)c1F (stereo partly drawn) [Example 105] | 6.9 nM | 
CS(=O)(=O)c1ccccc1-c1ccc(N2CC[C@@H](NC(=O)Nc3ccc(Cl)cn3)C2=O)c(F)c1F [Example 24] | 22 nM | 1400 nM
CCP(=O)(CC)c1ccccc1-c1ccc(N2CC[C@@H](NC(=O)Nc3ccc(Cl)cc3F)C2=O)c(F)c1F [Example 75] | 3.4 nM | 1180 nM
CS(=O)(=O)c1ccccc1-c1ccc(N2CC[C@@H](NC(=O)Nc3ccc(Cl)cc3)C2=O)c(F)c1F [Example 10] | 2.2 nM | 130 nM
CCOP(C)(=O)c1ccccc1-c1ccc(N2CC[C@@H](NC(=O)Nc3ccc(Cl)cc3F)C2=O)c(F)c1F (stereo partly drawn) [Example 101] | 0.66 nM | 
CP(C)(=O)c1ncccc1-c1ccc(N2CC[C@@H](NC(=O)Nc3ccc(Cl)cc3F)C2=O)c(F)c1F [Example 74] | 2.2 nM | 140 nM
CP(C)(=O)c1ccccc1-c1ccc(N2CC[C@@H](NC(=O)Nc3cnc(Cl)cn3)C2=O)c(F)c1F [Example 63] | 5.67 nM | 4400 nM
COc1ccc(NC(=O)N[C@@H]2CCN(c3ccc(-c4ccccc4S(C)(=O)=O)c(F)c3F)C2=O)cc1 [Example 54] | 5.5 nM | 900 nM
CC(C)c1cc(-c2ccccc2P(C)(C)=O)ccc1N1CC[C@@H](NC(=O)Nc2ccc(Cl)cc2F)C1=O [Example 45] | 3 nM | 140 nM
CS(=O)(=O)Nc1ncccc1-c1ccc(N2CC[C@@H](NC(=O)Nc3ccc(Cl)cc3F)C2=O)c(C2CC2)c1 [Example 48] | 3.7 nM | 110 nM
COc1ccc(NC(=O)N[C@@H]2CCN(c3ccc(-c4ccccc4P(C)(C)=O)c(F)c3F)C2=O)cc1 [Example 65] | 1.2 nM | 2600 nM
COc1c(-c2ccccc2NS(C)(=O)=O)ccc(N2CC[C@@H](NC(=O)Nc3ccc(Cl)cc3F)C2=O)c1F [Example 34] | 4.1 nM | 26 nM
CS(=N)(=O)c1ccccc1-c1ccc(N2CC[C@@H](NC(=O)Nc3ccc(Cl)cc3F)C2=O)c(F)c1F (stereo partly drawn) [Example 58] | 6.3 nM | 610 nM
CP(C)(=O)c1ccccc1-c1ccc(N2CC[C@@H](NC(=O)Nc3ccc(OC(F)(F)F)cc3)C2=O)c(F)c1F [Example 51] | 8.2 nM | 1300 nM
CC(N)c1cccc(-c2ccc(N3CC[C@@H](NC(=O)Nc4ccc(Cl)cc4)C3=O)c(F)c2F)c1 (stereo partly drawn) [Example 12] | 2.5 nM | 450 nM
CS(=O)(=O)Nc1ccccc1-c1ccc(N2CC[C@@H](NC(=O)Nc3ccc(C(F)(F)F)cc3F)C2=O)c(F)c1F [Example 33] | 1.1 nM | 470 nM
CCOP(C)(=O)c1ccccc1-c1ccc(N2CC[C@@H](NC(=O)Nc3ccc(C(F)(F)F)cc3F)C2=O)c(F)c1F (stereo partly drawn) [Example 104] | 5.2 nM | 

The remaining lines, values ahead:

EC50 (human FPR2) | EC50 (human FPR1) | Structure (SMILES)
1.2 nM | 55 nM | CC1C[C@@H](NC(=O)Nc2ccc(C(F)(F)F)cc2F)C(=O)N1c1ccc(-c2ccccc2P(C)(C)=O)c(F)c1F (stereo partly drawn) [Example 115]
0.81 nM | 610 nM | CC1C[C@@H](NC(=O)Nc2ccc(Cl)cc2F)C(=O)N1c1ccc(-c2cccnc2P(C)(C)=O)c(F)c1F (stereo partly drawn) [Example 122]
17 nM | 320 nM | COc1ncccc1-c1ccc(N2CC[C@@H](NC(=O)Nc3ccc(Cl)cc3F)C2=O)c(F)c1F [Example 118]
0.27 nM | 390 nM | CP(C)(=O)c1ccccc1-c1ccc(N2C(=O)[C@H](NC(=O)Nc3ccc(Cl)cc3F)C[C@H]2CO)c(F)c1F [Example 112, 1-(4-Chloro-2-fluorophenyl)-3-((3R,5S)-1-(2′-(dimethylphosphoryl)-2,3-difluoro-[1,1′-biphenyl]-4-yl)-5-(hydroxymethyl)-2-oxopyrrolidin-3-yl)urea]
8.3 nM | 220 nM | CP(C)(=O)c1ccccc1-c1ccc(N2CC[C@@H](NC(=O)Nc3ccc(C(F)(F)F)cc3F)C2=O)c(C(F)(F)F)c1F [Example 92]
1.6 nM | 1.2 nM | CP(C)(=O)c1ccccc1-c1ccc(N2CC[C@@H](NC(=O)Nc3ccc(Cl)cc3F)C2=O)c(F)c1OC(F)(F)F [Example 87]
0.79 nM | 760 nM | CP(C)(=O)c1ccccc1-c1ccc(N2CC(CO)[C@@H](NC(=O)Nc3ccc(C(F)(F)F)cc3F)C2=O)c(F)c1F (stereo partly drawn) [Example 124]
0.3 nM | 5 nM | CC1C[C@@H](NC(=O)Nc2ccc(Cl)cc2F)C(=O)N1c1ccc(-c2cccnc2P(C)(C)=O)c(F)c1F (stereo partly drawn) [Example 121]
1.4 nM | 86 nM | CP(C)(=O)c1ccccc1-c1ccc(N2CC[C@@H](NC(=O)Nc3ccc(C(F)(F)F)cc3F)C2=O)c(Cl)c1Cl [Example 80]
5.1 nM | 1400 nM | COC[C@@H]1C[C@@H](NC(=O)Nc2ccc(C(F)(F)F)cc2F)C(=O)N1c1ccc(-c2ccccc2P(C)(C)=O)c(F)c1F [Example 90]
30 nM | 540 nM | CP(C)(=O)c1ccccc1-c1ccc(N2C(=O)[C@@H](NC(=O)Nc3ccc(Cl)cc3F)C[C@H]2CO)c(F)c1F [Example 111]
1.5 nM | 240 nM | CP(C)(=O)c1ncccc1-c1ccc(N2C(=O)[C@H](NC(=O)Nc3ccc(C(F)(F)F)cc3F)C[C@H]2CO)c(F)c1F [Example 123]
5.3 nM | 4.9 nM | CP(C)(=O)c1ccccc1-c1ccc(N2CC[C@@H](NC(=O)Nc3ccc(C(F)(F)F)cc3F)C2=O)c(F)c1OC(F)(F)F [Example 88]
39 nM | > 10000 nM | O=C(Nc1ccc(Cl)cc1F)N[C@@H]1CCN(c2ccc(-c3cnn(C(F)F)c3)c(F)c2F)C1=O [Example 79]
